The values that follow come from ChEMBL document CHEMBL5576038, “Design of a novel long-acting dual GLP-1/GIP receptor agonist” (Bioorg Med Chem, 2024).

What is called EC50 is the midpoint of the concentration-response curve.

Assay [1] concerns the target Glucagon-like peptide 1 receptor (Homo sapiens, UniProt P43220). Nature of the assay: Agonist activity at human GLP-1R expressed in CHO cells assessed as increase in cAMP production incubated for 30 mins by Eu-cAMP tracer based microplate reader analysis. It counts as functional, cell-based. A general note: cAMP levels reflect the balance of adenylyl cyclase and phosphodiesterase activity.

Assay [2] addresses T1, Gastric inhibitory polypeptide receptor (Homo sapiens, UniProt P48546).
T1 sequence (P48546 whole entry): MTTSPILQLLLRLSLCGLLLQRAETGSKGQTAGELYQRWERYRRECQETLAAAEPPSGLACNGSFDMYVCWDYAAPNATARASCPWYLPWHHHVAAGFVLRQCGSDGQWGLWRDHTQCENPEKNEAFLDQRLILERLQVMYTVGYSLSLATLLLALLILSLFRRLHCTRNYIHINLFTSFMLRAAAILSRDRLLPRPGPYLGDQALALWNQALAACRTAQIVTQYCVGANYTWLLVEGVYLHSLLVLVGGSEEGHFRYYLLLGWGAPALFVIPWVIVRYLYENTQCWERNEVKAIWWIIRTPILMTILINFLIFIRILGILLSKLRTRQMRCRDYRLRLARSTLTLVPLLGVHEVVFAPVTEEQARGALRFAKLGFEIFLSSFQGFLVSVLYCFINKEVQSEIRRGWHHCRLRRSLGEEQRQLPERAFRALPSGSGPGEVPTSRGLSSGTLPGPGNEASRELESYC
Nature of the assay: Agonist activity at human GIPR expressed in CHO cells assessed as increase in cAMP production incubated for 30 mins by Eu-cAMP tracer based microplate reader analysis. It counts as functional, cell-based.

Each structure is given as a SMILES string. Where a SMILES comes first, the peptide text is derived from it. [ ]: non-standard residue; d: D form. The star is where a group is joined. X1 = N[C@@H](CCCCNC(=O)CC[C@H](NC(=O)CCCCCCCCCCCCCCCCCCC(=O)O)C(=O)O)C(=O)NCCCC[C@H](N)C(=O)N[C@@H](CCCCNC(=O)C*)C(=O)O; X5 = O=C(O)CCCCCCCCCCCCCCCCCCC(=O)N[C@@H](CCC(=O)NCCOCCOCC(=O)NCCOCCOCC(=O)N[C@@H](CCCCNC(=O)C*)C(=O)O)C(=O)O; Aib = CC(C)(N)C(=O)O

Chain of Glucagon-like peptide 1 receptor (P43220 whole entry): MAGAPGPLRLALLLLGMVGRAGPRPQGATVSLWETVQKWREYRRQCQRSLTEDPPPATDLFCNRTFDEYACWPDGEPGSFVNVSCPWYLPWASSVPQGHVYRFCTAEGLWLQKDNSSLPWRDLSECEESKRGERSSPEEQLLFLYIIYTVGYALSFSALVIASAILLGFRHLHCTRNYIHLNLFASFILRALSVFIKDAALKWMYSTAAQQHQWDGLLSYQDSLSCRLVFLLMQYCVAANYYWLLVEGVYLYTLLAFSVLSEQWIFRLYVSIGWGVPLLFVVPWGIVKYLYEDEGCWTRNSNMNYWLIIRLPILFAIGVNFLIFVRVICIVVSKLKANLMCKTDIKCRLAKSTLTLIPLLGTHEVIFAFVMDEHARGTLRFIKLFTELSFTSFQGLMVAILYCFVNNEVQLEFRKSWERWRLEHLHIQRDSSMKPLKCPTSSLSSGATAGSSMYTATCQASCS

For `CC(C)C[C@H](NC(=O)[C@H](CC(C)C)NC(=O)[C@H](Cc1c[nH]c2ccccc12)NC(=O)[C@H](CSCC(=O)NCCCC[C@H](NC(=O)[C@@H](N)CCCCNC(=O)[C@@H](N)CCCCNC(=O)CC[C@H](NC(=O)CCCCCCCCCCCCCCCCCCC(=O)O)C(=O)O)C(=O)O)NC(=O)[C@@H](NC(=O)[C@H](Cc1ccccc1)NC(=O)[C@H](CC(C)C)NC(=O)[C@H](CCCCN)NC(=O)[C@H](C)NC(=O)[C@H](C)NC(=O)[C@H](CCC(N)=O)NC(=O)[C@H](CCCCN)NC(=O)[C@H](CCC(=O)O)NC(=O)[C@H](CC(C)C)NC(=O)[C@H](Cc1ccc(O)cc1)NC(=O)[C@H](Cc1ccc(O)cc1)NC(=O)[C@H](CO)NC(=O)[C@H](Cc1ccc(O)cc1)NC(=O)[C@H](CC(=O)O)NC(=O)[C@H](CO)NC(=O)[C@@H](NC(=O)[C@H](Cc1ccccc1)NC(=O)[C@@H](NC(=O)CNC(=O)[C@H](CCC(=O)O)NC(=O)C(C)(C)NC(=O)[C@@H](N)Cc1ccc(O)cc1)[C@@H](C)O)[C@@H](C)O)C(C)C)C(=O)N[C@@H](C)C(=O)NCC(=O)NCC(=O)N1CCC[C@H]1C(=O)N[C@@H](CO)C(=O)N[C@@H](CO)C(=O)NCC(=O)N[C@@H](C)C(=O)N1CCC[C@H]1C(=O)N1CCC[C@H]1C(=O)N1CCC[C@H]1C(=O)N[C@@H](CO)C(N)=O` (H-Y[Aib]EGTFTSDYSYYLEKQAAKLFVC(X1)WLLAGGPSSGAPPPS-NH2), the figures for the EC50 in assay [1] and in assay [2] were 0.29 nM and 7.2 nM, respectively.
The matching figures for `CC(C)C[C@H](NC(=O)[C@H](CC(C)C)NC(=O)[C@H](Cc1c[nH]c2ccccc12)NC(=O)[C@H](CSCC(=O)NCCCC[C@H](NC(=O)COCCOCCNC(=O)COCCOCCNC(=O)CC[C@H](NC(=O)CCCCCCCCCCCCCCCCCCC(=O)O)C(=O)O)C(=O)O)NC(=O)[C@@H](NC(=O)[C@H](Cc1ccccc1)NC(=O)[C@H](CC(C)C)NC(=O)[C@H](CCCCN)NC(=O)[C@H](C)NC(=O)[C@H](C)NC(=O)[C@H](CCC(N)=O)NC(=O)[C@H](CCCCN)NC(=O)[C@H](CCC(=O)O)NC(=O)[C@H](CC(C)C)NC(=O)[C@H](Cc1ccc(O)cc1)NC(=O)[C@H](Cc1ccc(O)cc1)NC(=O)[C@H](CO)NC(=O)[C@H](Cc1ccc(O)cc1)NC(=O)[C@H](CC(=O)O)NC(=O)[C@H](CO)NC(=O)[C@@H](NC(=O)[C@H](Cc1ccccc1)NC(=O)[C@@H](NC(=O)CNC(=O)[C@H](CCC(=O)O)NC(=O)C(C)(C)NC(=O)[C@@H](N)Cc1ccc(O)cc1)[C@@H](C)O)[C@@H](C)O)C(C)C)C(=O)N[C@@H](C)C(=O)NCC(=O)NCC(=O)N1CCC[C@H]1C(=O)N[C@@H](CO)C(=O)N[C@@H](CO)C(=O)NCC(=O)N[C@@H](C)C(=O)N1CCC[C@H]1C(=O)N1CCC[C@H]1C(=O)N1CCC[C@H]1C(=O)N[C@@H](CO)C(N)=O` (H-Y[Aib]EGTFTSDYSYYLEKQAAKLFVC(X5)WLLAGGPSSGAPPPS-NH2): 0.89 nM and 3.73 nM.
For `CC(C)C[C@H](NC(=O)[C@H](CC(C)C)NC(=O)[C@H](Cc1c[nH]c2ccccc12)NC(=O)[C@H](CS)NC(=O)[C@@H](NC(=O)[C@H](Cc1ccccc1)NC(=O)[C@H](CC(C)C)NC(=O)[C@H](CCCCN)NC(=O)[C@H](C)NC(=O)[C@H](C)NC(=O)[C@H](CCC(N)=O)NC(=O)[C@H](CCCCN)NC(=O)[C@H](CCC(=O)O)NC(=O)[C@H](CC(C)C)NC(=O)[C@H](Cc1ccc(O)cc1)NC(=O)[C@H](Cc1ccc(O)cc1)NC(=O)[C@H](CO)NC(=O)[C@H](Cc1ccc(O)cc1)NC(=O)[C@H](CC(=O)O)NC(=O)[C@H](CO)NC(=O)[C@@H](NC(=O)[C@H](Cc1ccccc1)NC(=O)[C@@H](NC(=O)CNC(=O)[C@H](CCC(=O)O)NC(=O)C(C)(C)NC(=O)[C@@H](N)Cc1ccc(O)cc1)[C@@H](C)O)[C@@H](C)O)C(C)C)C(=O)N[C@@H](C)C(=O)NCC(=O)NCC(=O)N1CCC[C@H]1C(=O)N[C@@H](CO)C(=O)N[C@@H](CO)C(=O)NCC(=O)N[C@@H](C)C(=O)N1CCC[C@H]1C(=O)N1CCC[C@H]1C(=O)N1CCC[C@H]1C(=O)N[C@@H](CO)C(N)=O` (H-Y[Aib]EGTFTSDYSYYLEKQAAKLFVCWLLAGGPSSGAPPPS-NH2), in that order: 0.57 nM and 2.57 nM.
On to `CC(C)C[C@H](NC(=O)[C@H](CC(C)C)NC(=O)[C@H](Cc1c[nH]c2ccccc12)NC(=O)[C@H](CCC(N)=O)NC(=O)[C@@H](NC(=O)[C@H](Cc1ccccc1)NC(=O)[C@H](CC(C)C)NC(=O)[C@H](CCCCN)NC(=O)[C@H](C)NC(=O)[C@H](C)NC(=O)[C@H](CCC(N)=O)NC(=O)[C@H](CS)NC(=O)[C@H](CCC(=O)O)NC(=O)[C@H](CC(C)C)NC(=O)[C@H](Cc1ccc(O)cc1)NC(=O)[C@H](Cc1ccc(O)cc1)NC(=O)[C@H](CO)NC(=O)[C@H](Cc1ccc(O)cc1)NC(=O)[C@H](CC(=O)O)NC(=O)[C@H](CO)NC(=O)[C@@H](NC(=O)[C@H](Cc1ccccc1)NC(=O)[C@@H](NC(=O)CNC(=O)[C@H](CCC(=O)O)NC(=O)C(C)(C)NC(=O)[C@@H](N)Cc1ccc(O)cc1)[C@@H](C)O)[C@@H](C)O)C(C)C)C(=O)N[C@@H](C)C(=O)NCC(=O)NCC(=O)N1CCC[C@H]1C(=O)N[C@@H](CO)C(=O)N[C@@H](CO)C(=O)NCC(=O)N[C@@H](C)C(=O)N1CCC[C@H]1C(=O)N1CCC[C@H]1C(=O)N1CCC[C@H]1C(=O)N[C@@H](CO)C(N)=O` (H-Y[Aib]EGTFTSDYSYYLECQAAKLFVQWLLAGGPSSGAPPPS-NH2), for which the EC50 in assay [1] (cho) was 0.6 nM; in assay [2] (cho), 1.87 nM.
As to `CC(C)C[C@H](NC(=O)[C@H](CC(C)C)NC(=O)[C@H](Cc1c[nH]c2ccccc12)NC(=O)[C@H](CCC(N)=O)NC(=O)[C@@H](NC(=O)[C@H](Cc1ccccc1)NC(=O)[C@H](CS)NC(=O)[C@H](CCCCN)NC(=O)[C@H](C)NC(=O)[C@H](C)NC(=O)[C@H](CCC(N)=O)NC(=O)[C@H](CCCCN)NC(=O)[C@H](CCC(=O)O)NC(=O)[C@H](CC(C)C)NC(=O)[C@H](Cc1ccc(O)cc1)NC(=O)[C@H](Cc1ccc(O)cc1)NC(=O)[C@H](CO)NC(=O)[C@H](Cc1ccc(O)cc1)NC(=O)[C@H](CC(=O)O)NC(=O)[C@H](CO)NC(=O)[C@@H](NC(=O)[C@H](Cc1ccccc1)NC(=O)[C@@H](NC(=O)CNC(=O)[C@H](CCC(=O)O)NC(=O)C(C)(C)NC(=O)[C@@H](N)Cc1ccc(O)cc1)[C@@H](C)O)[C@@H](C)O)C(C)C)C(=O)N[C@@H](C)C(=O)NCC(=O)NCC(=O)N1CCC[C@H]1C(=O)N[C@@H](CO)C(=O)N[C@@H](CO)C(=O)NCC(=O)N[C@@H](C)C(=O)N1CCC[C@H]1C(=O)N1CCC[C@H]1C(=O)N1CCC[C@H]1C(=O)N[C@@H](CO)C(N)=O` (H-Y[Aib]EGTFTSDYSYYLEKQAAKCFVQWLLAGGPSSGAPPPS-NH2), the EC50 in assay [1] is 6.51 nM; in assay [2], 14.8 nM.
The matching figures for `CC(C)C[C@H](NC(=O)[C@H](CC(C)C)NC(=O)[C@H](Cc1c[nH]c2ccccc12)NC(=O)[C@H](CCC(N)=O)NC(=O)[C@@H](NC(=O)[C@H](Cc1ccccc1)NC(=O)[C@H](CC(C)C)NC(=O)[C@H](CCCCN)NC(=O)[C@H](C)NC(=O)[C@H](C)NC(=O)[C@H](CCC(N)=O)NC(=O)[C@H](CCCCN)NC(=O)[C@H](CCC(=O)O)NC(=O)[C@H](CC(C)C)NC(=O)[C@H](CS)NC(=O)[C@H](Cc1ccc(O)cc1)NC(=O)[C@H](CO)NC(=O)[C@H](Cc1ccc(O)cc1)NC(=O)[C@H](CC(=O)O)NC(=O)[C@H](CO)NC(=O)[C@@H](NC(=O)[C@H](Cc1ccccc1)NC(=O)[C@@H](NC(=O)CNC(=O)[C@H](CCC(=O)O)NC(=O)C(C)(C)NC(=O)[C@@H](N)Cc1ccc(O)cc1)[C@@H](C)O)[C@@H](C)O)C(C)C)C(=O)N[C@@H](C)C(=O)NCC(=O)NCC(=O)N1CCC[C@H]1C(=O)N[C@@H](CO)C(=O)N[C@@H](CO)C(=O)NCC(=O)N[C@@H](C)C(=O)N1CCC[C@H]1C(=O)N1CCC[C@H]1C(=O)N1CCC[C@H]1C(=O)N[C@@H](CO)C(N)=O` (H-Y[Aib]EGTFTSDYSYCLEKQAAKLFVQWLLAGGPSSGAPPPS-NH2): 0.42 nM and 0.39 nM.
The matching figures for `CC(C)C[C@H](NC(=O)[C@H](CC(C)C)NC(=O)[C@H](Cc1c[nH]c2ccccc12)NC(=O)[C@H](CCC(N)=O)NC(=O)[C@@H](NC(=O)[C@H](Cc1ccccc1)NC(=O)[C@H](CC(C)C)NC(=O)[C@H](CS)NC(=O)[C@H](C)NC(=O)[C@H](C)NC(=O)[C@H](CCC(N)=O)NC(=O)[C@H](CCCCN)NC(=O)[C@H](CCC(=O)O)NC(=O)[C@H](CC(C)C)NC(=O)[C@H](Cc1ccc(O)cc1)NC(=O)[C@H](Cc1ccc(O)cc1)NC(=O)[C@H](CO)NC(=O)[C@H](Cc1ccc(O)cc1)NC(=O)[C@H](CC(=O)O)NC(=O)[C@H](CO)NC(=O)[C@@H](NC(=O)[C@H](Cc1ccccc1)NC(=O)[C@@H](NC(=O)CNC(=O)[C@H](CCC(=O)O)NC(=O)C(C)(C)NC(=O)[C@@H](N)Cc1ccc(O)cc1)[C@@H](C)O)[C@@H](C)O)C(C)C)C(=O)N[C@@H](C)C(=O)NCC(=O)NCC(=O)N1CCC[C@H]1C(=O)N[C@@H](CO)C(=O)N[C@@H](CO)C(=O)NCC(=O)N[C@@H](C)C(=O)N1CCC[C@H]1C(=O)N1CCC[C@H]1C(=O)N1CCC[C@H]1C(=O)N[C@@H](CO)C(N)=O` (H-Y[Aib]EGTFTSDYSYYLEKQAACLFVQWLLAGGPSSGAPPPS-NH2): 0.29 nM and 0.6 nM.
